These molecules were tested against T1, human S1P1 receptor (Homo sapiens, UniProt P21453) (assay: GTP γ35S binding assay for S1P1 activity). Conditions: membranes of cells stably expressing the S1P1 receptor, test compounds 0.08 to 5,000 nM, 30 min at 25° C.
T1 construct: expressed in transfected cells; membranes from cells stably expressing the S1P1 receptor
Format: biochemical
Method: Compounds were synthesized and tested for S1P1 activity using the GTP γ^35S binding assay. These compounds may be assessed for their ability to activate or block activation of the human S1P1 receptor in cells stably expressing the S1P1 receptor.
GTP γ^35S binding was measured in the medium containing (mM) HEPES 25, pH 7.4, MgCl2 10, NaCl 100, dithiothreitol 0.5, digitonin 0.003%, 0.2 nM GTP γ^35S, and 5 μg membrane protein in a volume of 150 μl. Test compounds were included in the concentration range from 0.08 to 5,000 nM unless indicated otherwise. Membranes were incubated with 100 μM 5′-adenylylimidodiphosphate for 30 min, and subsequently with 10 μM GDP for 10 min on ice. Drug solutions and membrane were mixed, and then reactions were initiated by adding GTP γ^35S and continued for 30 min at 25° C. Reaction mixtures were filtered over Whatman GF/B filters under vacuum, and washed three times with 3 mL of ice-cold buffer (HEPES 25, pH7.4, MgCl2 10 and NaCl 100). Filters were dried and mixed with scintillant, and counted for ^35S activity using a β-counter. Agonist-induced GTP γ^35S binding was obtained by subtracting that in the absence of agonist. Binding data were analyzed using a non-linear regression method. In case of antagonist assay, the reaction mixture contained 10 nM […] in the presence of test antagonist at concentrations ranging from 0.08 to 5000 nM.

T1 sequence (P21453 whole entry): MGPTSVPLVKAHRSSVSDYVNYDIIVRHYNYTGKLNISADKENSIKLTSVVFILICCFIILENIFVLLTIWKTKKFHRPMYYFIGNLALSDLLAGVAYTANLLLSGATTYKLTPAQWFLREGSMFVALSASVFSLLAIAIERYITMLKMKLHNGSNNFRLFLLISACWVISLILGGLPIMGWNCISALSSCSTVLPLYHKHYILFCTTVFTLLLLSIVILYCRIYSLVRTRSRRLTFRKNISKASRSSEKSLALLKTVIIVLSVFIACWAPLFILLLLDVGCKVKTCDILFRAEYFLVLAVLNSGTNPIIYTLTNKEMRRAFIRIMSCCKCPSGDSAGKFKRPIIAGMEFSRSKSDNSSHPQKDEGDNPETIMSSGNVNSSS

Structure (SMILES)	EC50
CCCC(CCCOc1ccc(CN2CC(C(=O)O)C2)cc1)Cc1ccc(C)c(C)c1 (stereo not drawn) [Compound 3, 1-(4-{[4-(3,4-Dimethylbenzyl)heptyl]oxy}benzyl)azetidine-3-carboxylic acid]	6.51 nM
CCCCC(CCCOc1ccc(CN2CC(C(=O)O)C2)cc1)Cc1ccc(C)c(C)c1 (stereo not drawn) [Compound 2, 1-(4-{[4-(3,4-Dimethylbenzyl)octyl]oxy}benzyl)azetidine-3-carboxylic acid]	1.03 nM
CCCCC(CCCOc1c(F)cc(CN2CC(C(=O)O)C2)cc1OC)Cc1ccc(C)c(C)c1 (stereo not drawn) [1-(4-{[4-(3,4-dimethylbenzyl)octyl]oxy}-3-fluoro-5-methoxybenzyl)azetidine-3-carboxylic acid]	2.91 nM
CCCC(CCCOc1ccc(CN2CC(C(=O)O)C2)cc1Cl)Cc1ccc(C)c(C)c1 (stereo not drawn) [Compound 14, 1-(3-Chloro-4-{[4-(3,4-dimethylbenzyl)heptyl]oxy}benzyl)azetidine-3-carboxylic acid]	11.6 nM
CCCCCC(CCCOc1ccc(CN2CC(C(=O)O)C2)cc1)Cc1ccc(C)c(C)c1 (stereo not drawn) [Compound 1, 1-(4-{[4-(3,4-Dimethylbenzyl)nonyl]oxy}benzyl)azetidine-3-carboxylic acid]	6.04 nM
CCCCCC(CCCOc1ccc(CN2CC(C(=O)O)C2)cc1Cl)Cc1ccc(C)c(C)c1 (stereo not drawn) [Compound 13, 1-(3-Chloro-4-{[4-(3,4-dimethylbenzyl)nonyl]oxy}benzyl)azetidine-3-carboxylic acid]	13.8 nM
CCCCC(CCCOc1ccc(CN2CC(C(=O)O)C2)cc1F)Cc1ccc(C)c(C)c1 (stereo not drawn) [1-(4-{[4-(3,4-dimethylbenzyl)octyl]oxy}-3-fluorobenzyl)azetidine-3-carboxylic acid]	5.42 nM
CCCC(CCCOc1ccc(CN2CC(C(=O)O)C2)cc1C)Cc1ccc(C)c(C)c1 (stereo not drawn) [Compound 16, 1-(4-{[4-(3,4-Dimethylbenzyl)heptyl]oxy}-3-methylbenzyl)azetidine-3-carboxylic acid]	21.2 nM
CCCCC(CCCOc1ccc(CN2CC(C(=O)O)C2)cc1Br)Cc1ccc(C)c(C)c1 (stereo not drawn) [Compound 8, 1-(3-Bromo-4-{[4-(3,4-dimethylbenzyl)octyl]oxy}benzyl)azetidine-3-carboxylic acid]	6.54 nM
CCC(CCCOc1ccc(CN2CC(C(=O)O)C2)cc1)Cc1ccc(C)c(C)c1 (stereo not drawn) [Compound 4, 1-(4-{[4-(3,4-Dimethylbenzyl)hexyl]oxy}benzyl)azetidine-3-carboxylic acid]	69.2 nM

Continued by falling EC50, values first:

EC50	Structure (SMILES)
102 nM	CCCCCCC(CCCOc1ccc(CN2CC(C(=O)O)C2)cc1)Cc1ccc(C)c(C)c1 (stereo not drawn) [Compound 5, 1-(4-{[4-(3,4-Dimethylbenzyl)decyl]oxy}benzyl)azetidine-3-carboxylic acid]
11.7 nM	CCCCC(CCCOc1c(C)cc(CN2CC(C(=O)O)C2)cc1C)Cc1ccc(C)c(C)c1 (stereo not drawn) [Compound 6, 1-(4-{[4-(3,4-Dimethylbenzyl)octyl]oxy}-3,5-dimethylbenzyl)azetidine-3-carboxylic acid]
5.8 nM	CCCCC(CCCOc1ccc(CN2CC(C(=O)O)C2)cc1C)Cc1ccc(C)c(C)c1 (stereo not drawn) [Compound 7, 1-(4-{[4-(3,4-Dimethylbenzyl)octyl]oxy}-3-dimethylbenzyl)azetidine-3-carboxylic acid]
2.71 nM	CCCCC(CCCOc1ccc(CN2CC(C(=O)O)C2)cc1Cl)Cc1ccc(C)c(C)c1 (stereo not drawn) [1-(3-chloro-4-{[4-(3,4-dimethylbenzyl)octyl]oxy}benzyl)azetidine-3-carboxylic acid]
2.05 nM	CCCC(CCCOc1c(C)cc(CN2CC(C(=O)O)C2)cc1C)Cc1ccc(C)c(C)c1 (stereo not drawn) [1-(4-{[4-(3,4-dimethylbenzyl)heptyl]oxy}-3,5-dimethylbenzyl)azetidine-3-carboxylic acid]
